Laboratory results from ChEMBL document CHEMBL1127771, “Structure-activity relationships in a series of monocyclic endothelin analogues” (Bioorg Med Chem Lett, 1994).
Where a SMILES comes first, the peptide text is derived from it. Bridges are numbered along the chain shown (N, C = ends). [ ]: non-standard residue; d: D form. Aoc = NCCCCCCCC(=O)O; Ava = NCCCCC(=O)O

Columns and labels:
Rattus norvegicus = species on record: Rattus norvegicus; assay: Inhibition of ET-1 induced accumulation of inositol phosphates (IP-3) in rat skin fibroblasts; format: functional
Endothelin-1 receptor = biological target: T1, Endothelin-1 receptor (Rattus norvegicus, UniProt P26684); assay: In vitro binding affinity against Endothelin A receptor by using endothelin (ET-1) as radioligand in rat heart ventricle
T1 sequence (P26684 whole entry): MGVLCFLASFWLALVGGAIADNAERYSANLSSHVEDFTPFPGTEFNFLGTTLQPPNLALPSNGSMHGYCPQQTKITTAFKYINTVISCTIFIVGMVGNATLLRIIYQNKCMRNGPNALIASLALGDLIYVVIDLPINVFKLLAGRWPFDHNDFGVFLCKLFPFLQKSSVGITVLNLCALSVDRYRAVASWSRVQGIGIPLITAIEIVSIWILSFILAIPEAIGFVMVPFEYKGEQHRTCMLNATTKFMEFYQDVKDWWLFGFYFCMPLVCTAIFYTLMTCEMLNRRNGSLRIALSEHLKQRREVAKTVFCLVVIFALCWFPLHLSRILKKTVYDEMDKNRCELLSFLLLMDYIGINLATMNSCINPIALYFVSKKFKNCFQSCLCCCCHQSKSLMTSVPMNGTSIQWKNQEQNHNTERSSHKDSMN

[1] = biological target: T2, Endothelin receptor type B (Rattus norvegicus, UniProt P21451); assay: Binding affinity against Endothelin B receptor in rat cerebellar membrane (ET-B) from adult blue laurie rat; format: cell membranes, Cerebellum
T2 sequence (P21451 whole entry): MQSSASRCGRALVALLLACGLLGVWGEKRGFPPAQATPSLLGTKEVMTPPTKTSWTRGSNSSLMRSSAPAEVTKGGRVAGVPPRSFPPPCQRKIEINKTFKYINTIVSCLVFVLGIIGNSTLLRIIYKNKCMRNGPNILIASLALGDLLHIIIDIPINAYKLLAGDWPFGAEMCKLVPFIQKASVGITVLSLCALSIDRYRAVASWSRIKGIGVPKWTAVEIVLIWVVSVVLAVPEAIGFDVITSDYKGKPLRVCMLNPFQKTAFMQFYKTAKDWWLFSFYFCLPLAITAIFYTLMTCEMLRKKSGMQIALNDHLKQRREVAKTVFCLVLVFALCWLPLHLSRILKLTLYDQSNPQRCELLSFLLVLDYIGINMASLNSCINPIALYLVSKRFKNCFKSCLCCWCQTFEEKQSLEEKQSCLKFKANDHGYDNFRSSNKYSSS

[2] = biological target: T2, Endothelin receptor type B; assay: Binding affinity against endothelin receptor in rat cerebellar membrane (ET-B) from adult blue laurie rat; format: cell membranes, Cerebellum

## CC[C@H](C)[C@H](NC(=O)[C@H](CC(=O)O)NC(=O)[C@H](CC(C)C)NC(=O)[C@H](Cc1c[nH]cn1)NC(=O)[C@@H]1CSSC[C@H](N)C(=O)N[C@@H](CO)C(=O)NCCCCCCC(=O)N[C@@H](C(C)C)C(=O)N[C@@H](Cc2ccc(O)cc2)C(=O)N[C@@H](Cc2ccccc2)C(=O)N1)C(=O)N[C@H](C(=O)N[C@@H](Cc1c[nH]c2ccccc12)C(=O)O)[C@@H](C)CC [listing 1 of 2 here]
Rattus norvegicus
  IC50: 8000 nM

## CC[C@H](C)[C@H](NC(=O)[C@H](CC(=O)O)NC(=O)[C@H](CC(C)C)NC(=O)[C@H](Cc1c[nH]cn1)NC(=O)[C@@H]1CSSC[C@H](N)C(=O)N[C@@H](CO)C(=O)NCCCCCCC(=O)N[C@@H](C(C)C)C(=O)N[C@@H](Cc2ccc(O)cc2)C(=O)N[C@@H](Cc2ccccc2)C(=O)N1)C(=O)N[C@H](C(=O)N[C@@H](Cc1c[nH]c2ccccc12)C(=O)O)[C@@H](C)CC [listing 2 of 2 here]
Endothelin-1 receptor
  IC50: 2500 nM

## CC[C@H](C)[C@H](NC(=O)[C@H](CC(=O)O)NC(=O)[C@H](CC(C)C)NC(=O)[C@H](Cc1c[nH]cn1)NC(=O)[C@@H]1CSSC[C@H](N)C(=O)N[C@@H](CO)C(=O)N[C@@H](CC(=O)O)C(=O)N[C@@H](CCCCN)C(=O)N[C@@H](CCC(=O)O)C(=O)N[C@@H](C(C)C)C(=O)N[C@@H](Cc2ccc(O)cc2)C(=O)N[C@@H](Cc2ccccc2)C(=O)N1)C(=O)N[C@H](C(=O)N[C@@H](Cc1c[nH]c2ccccc12)C(=O)O)[C@@H](C)CC (H-CSDKEVYFCHLDIIW-OH; disulfide 1-9) [listing 1 of 2 here]
[1]
  IC50: 1100 nM
Endothelin-1 receptor
  IC50: 3500 nM

## CC[C@H](C)[C@H](NC(=O)[C@H](CC(=O)O)NC(=O)[C@H](CC(C)C)NC(=O)[C@H](Cc1c[nH]cn1)NC(=O)[C@@H]1CSSC[C@H](N)C(=O)N[C@@H](CO)C(=O)N[C@@H](CC(=O)O)C(=O)N[C@@H](CCCCN)C(=O)N[C@@H](CCC(=O)O)C(=O)N[C@@H](C(C)C)C(=O)N[C@@H](Cc2ccc(O)cc2)C(=O)N[C@@H](Cc2ccccc2)C(=O)N1)C(=O)N[C@H](C(=O)N[C@@H](Cc1c[nH]c2ccccc12)C(=O)O)[C@@H](C)CC (H-CSDKEVYFCHLDIIW-OH; disulfide 1-9) [listing 2 of 2 here]
Rattus norvegicus
  IC50: > 10000 nM

## CC[C@H](C)[C@H](NC(=O)[C@H](CC(=O)O)NC(=O)[C@H](CC(C)C)NC(=O)[C@H](Cc1cnc[nH]1)NC(=O)[C@@H]1CSSC[C@H](N)C(=O)N[C@@H](CO)C(=O)N[C@@H](CO)C(=O)N[C@@H](CC(C)C)C(=O)N[C@@H](CCSC)C(=O)N[C@@H](CC(=O)O)C(=O)N[C@@H](CCCCN)C(=O)N[C@@H](CCC(=O)O)C(=O)N1)C(=O)N[C@H](C(=O)N[C@@H](Cc1c[nH]c2ccccc12)C(=O)O)[C@@H](C)CC (H-CSSLMDKECHLDIIW-OH; disulfide 1-9)
Endothelin-1 receptor
  IC50: 49000 nM
[2]
  IC50: > 10000 nM

## CC[C@H](C)[C@H](NC(=O)[C@H](CC(=O)O)NC(=O)[C@H](CC(C)C)NC(=O)[C@H](Cc1c[nH]cn1)NC(=O)[C@@H]1CSSC[C@H](N)C(=O)N[C@@H](CO)C(=O)N[C@@H](CO)C(=O)N[C@@H](CO)C(=O)N[C@@H](C(C)C)C(=O)N[C@@H](Cc2ccc(O)cc2)C(=O)N[C@@H](Cc2ccccc2)C(=O)N1)C(=O)N[C@H](C(=O)N[C@@H](Cc1c[nH]c2ccccc12)C(=O)O)[C@@H](C)CC (H-CSSSVYFCHLDIIW-OH; disulfide 1-8)
[1]
  IC50: 60 nM
Rattus norvegicus
  IC50: 5000 nM
Endothelin-1 receptor
  IC50: 1200 nM

## CC[C@H](C)[C@H](NC(=O)[C@H](CC(=O)O)NC(=O)[C@H](CC(C)C)NC(=O)[C@H](Cc1c[nH]cn1)NC(=O)[C@@H]1CSSC[C@H](N)C(=O)N[C@@H](CO)C(=O)N[C@@H](CO)C(=O)N[C@@H](C(C)C)C(=O)N[C@@H](Cc2ccc(O)cc2)C(=O)N[C@@H](Cc2ccccc2)C(=O)N1)C(=O)N[C@H](C(=O)N[C@@H](Cc1c[nH]c2ccccc12)C(=O)O)[C@@H](C)CC (H-CSSVYFCHLDIIW-OH; disulfide 1-7)
[1]
  IC50: 1400 nM
Endothelin-1 receptor
  IC50: 1800 nM

## CC[C@H](C)[C@H](NC(=O)[C@H](CC(=O)O)NC(=O)[C@H](CC(C)C)NC(=O)[C@H](Cc1c[nH]cn1)NC(=O)[C@@H]1CSSC[C@H](N)C(=O)N[C@@H](CO)C(=O)N[C@@H](C(C)C)C(=O)N[C@@H](Cc2ccc(O)cc2)C(=O)N[C@@H](Cc2ccccc2)C(=O)N1)C(=O)N[C@H](C(=O)N[C@@H](Cc1c[nH]c2ccccc12)C(=O)O)[C@@H](C)CC (H-CSVYFCHLDIIW-OH; disulfide 1-6)
[1]
  IC50: 1700 nM
Endothelin-1 receptor
  IC50: 2800 nM

## CC[C@H](C)[C@H](NC(=O)[C@H](CC(=O)O)NC(=O)[C@H](CC(C)C)NC(=O)[C@H](Cc1c[nH]cn1)NC(=O)[C@@H]1CSSC[C@H](N)C(=O)N[C@@H](CO)C(=O)NCCCCCCCC(=O)N[C@@H](C(C)C)C(=O)N[C@@H](Cc2ccc(O)cc2)C(=O)N[C@@H](Cc2ccccc2)C(=O)N1)C(=O)N[C@H](C(=O)N[C@@H](Cc1c[nH]c2ccccc12)C(=O)O)[C@@H](C)CC (H-CS[Aoc]VYFCHLDIIW-OH; disulfide 1-7)
Rattus norvegicus
  IC50: 3000 nM

## CC[C@H](C)[C@H](NC(=O)[C@H](CC(=O)O)NC(=O)[C@H](CC(C)C)NC(=O)[C@H](Cc1cnc[nH]1)NC(=O)[C@@H]1CSSC[C@H](N)C(=O)N[C@@H](CO)C(=O)NCCCCCCCC(=O)N[C@@H](C(C)C)C(=O)N[C@@H](Cc2ccc(O)cc2)C(=O)N[C@@H](Cc2ccccc2)C(=O)N1)C(=O)N[C@H](C(=O)N[C@@H](Cc1c[nH]c2ccccc12)C(=O)O)[C@@H](C)CC (H-CS[Aoc]VYFCHLDIIW-OH; disulfide 1-7)
[1]
  IC50: 240 nM
Endothelin-1 receptor
  IC50: 1600 nM

## CC[C@H](C)[C@H](NC(=O)[C@H](CC(=O)O)NC(=O)[C@H](CC(C)C)NC(=O)[C@H](Cc1c[nH]cn1)NC(=O)[C@@H]1CSSC[C@H](N)C(=O)N[C@@H](CO)C(=O)NCCCCC(=O)N[C@@H](C(C)C)C(=O)N[C@@H](Cc2ccc(O)cc2)C(=O)N[C@@H](Cc2ccccc2)C(=O)N1)C(=O)N[C@H](C(=O)N[C@@H](Cc1c[nH]c2ccccc12)C(=O)O)[C@@H](C)CC (H-CS[Ava]VYFCHLDIIW-OH; disulfide 1-7)
Rattus norvegicus
  IC50: > 10000 nM
Endothelin-1 receptor
  IC50: 1800 nM
[2]
  IC50: 350 nM

## CC[C@H](C)[C@H](NC(=O)[C@H](CC(=O)O)NC(=O)[C@H](CC(C)C)NC(=O)[C@H](Cc1c[nH]cn1)NC(=O)[C@@H]1CSSC[C@H](N)C(=O)N[C@@H](C(C)C)C(=O)N[C@@H](Cc2ccc(O)cc2)C(=O)N[C@@H](Cc2ccccc2)C(=O)N1)C(=O)N[C@H](C(=O)N[C@@H](Cc1c[nH]c2ccccc12)C(=O)O)[C@@H](C)CC (H-CVYFCHLDIIW-OH; disulfide 1-5)
[1]
  IC50: 1700 nM
Rattus norvegicus
  IC50: 2200 nM
Endothelin-1 receptor
  IC50: 6500 nM
